# Results taken from ChEMBL document CHEMBL1144115, “Antibacterial diterpenoid acids from Azorella compacta” (1999).
# Active and inactive are the calls of the source. The calls are words filed in the database; no cut-off is given here. Where a SMILES comes first, the peptide text is derived from it. Bridges are numbered along the chain shown (N, C = ends). [ ]: non-standard residue; d: D form. The star is where a group is joined. Ileψ(thiazoline)Cys = CC[C@H](C)[C@H](N)C1=N[C@H](C(=O)*)CS1; dOrn = NCCC[C@@H](N)C(=O)O
# Tests used:
# Staphylococcus aureus [1] = test: Antibacterial activity against methicillin-susceptible Staphylococcus aureus at 200 ug after 18 hrs by agar diffusion test; type: functional; conditions: for zone of inhibition at 200 µg/disc: read-out: IZ
# Staphylococcus aureus [2] = test: Antibacterial activity against methicillin-resistant Staphylococcus aureus at 200 ug after 18 hrs by agar diffusion test; type: functional; conditions: for zone of inhibition at 200 µg/disc: read-out: IZ
# Enterococcus faecium [3] = test: Antibacterial activity against vancomycin-resistant Enterococcus faecium at 200 ug after 18 hrs by agar diffusion test; type: functional; conditions: for zone of inhibition at 200 µg/disc: read-out: IZ
# Escherichia coli [4] = test: Antibacterial activity against Escherichia coli BAS849 mutant at 200 ug after 18 hrs by agar diffusion test; type: functional; conditions: for zone of inhibition at 200 µg/disc: read-out: IZ
# Candida albicans = test: Antimicrobial activity against Candida albicans at 200 ug after 18 hrs by agar diffusion test; type: functional, organism-based
# Escherichia coli [5] = test: Antibacterial activity against Escherichia coli BAS849 mutant at 30 ug after 18 hrs by agar diffusion test; type: functional; conditions: read-out: IZ
# Staphylococcus aureus [6] = test: Antibacterial activity against methicillin-susceptible Staphylococcus aureus at 30 ug after 18 hrs by agar diffusion test; type: functional; conditions: read-out: IZ
# Staphylococcus aureus [7] = test: Antibacterial activity against methicillin-resistant Staphylococcus aureus at 30 ug after 18 hrs by agar diffusion test; type: functional; conditions: read-out: IZ
# Enterococcus faecium [8] = test: Antibacterial activity against vancomycin-resistant Enterococcus faecium at 10 ug after 18 hrs by agar diffusion test; type: functional; conditions: read-out: IZ
smiles,measurement,setting,value
CC1=CC(=O)[C@H]2[C@@H]3CC[C@H](C(C)C)[C@@]3(C(=O)O)CC[C@@]2(C)C=C1,zone of inhibition at 200 µg/disc,Staphylococcus aureus [1],8 mm
same,zone of inhibition at 200 µg/disc,Staphylococcus aureus [2],8 mm
same,zone of inhibition at 200 µg/disc,Enterococcus faecium [3],8 mm
same,zone of inhibition at 200 µg/disc,Escherichia coli [4],8 mm
same,Activity,Candida albicans,inactive
CO[C@@]1(NC(=O)Cc2cccs2)C(=O)N2C(C(=O)O)=C(COC(N)=O)CS[C@@H]21 [CEFOXITIN],zone of inhibition at 30 µg/disc,Escherichia coli [5],16 mm
CC1=CC[C@]2(C)CC[C@]3(C(=O)O)[C@@H](C(C)C)CC[C@H]3[C@@H]2C=C1,Activity,Staphylococcus aureus [1],inactive
same,Activity,Staphylococcus aureus [2],inactive
same,Activity,Enterococcus faecium [3],inactive
same,Activity,Escherichia coli [4],inactive
same,Activity,Candida albicans,inactive
CN[C@H](CC(C)C)C(=O)N[C@H]1C(=O)N[C@@H](CC(N)=O)C(=O)N[C@H]2C(=O)N[C@H]3C(=O)N[C@H](C(=O)N[C@H](C(=O)O)c4cc(O)cc(O)c4-c4cc3ccc4O)[C@H](O)c3ccc(c(Cl)c3)Oc3cc2cc(c3O[C@@H]2O[C@H](CO)[C@@H](O)[C@H](O)[C@H]2O[C@H]2C[C@](C)(N)[C@H](O)[C@H](C)O2)Oc2ccc(cc2Cl)[C@H]1O [VANCOMYCIN],zone of inhibition at 30 µg/disc,Staphylococcus aureus [6],16 mm
same,zone of inhibition at 30 µg/disc,Staphylococcus aureus [7],16 mm
CC(C)[C@H]1CC[C@H]2[C@@H]3C=C[C@](C)(O)CC[C@]3(C)CC[C@]12C(=O)O,Activity,Staphylococcus aureus [1],inactive
same,Activity,Staphylococcus aureus [2],inactive
same,Activity,Enterococcus faecium [3],inactive
same,Activity,Escherichia coli [4],inactive
same,Activity,Candida albicans,inactive
CC[C@H](C)[C@H](N)C1=N[C@H](C(=O)N[C@@H](CC(C)C)C(=O)N[C@H](CCC(=O)O)C(=O)N[C@H](C(=O)N[C@H]2CCCCNC(=O)[C@H](CC(N)=O)NC(=O)[C@@H](CC(=O)O)NC(=O)[C@H](Cc3cnc[nH]3)NC(=O)[C@@H](Cc3ccccc3)NC(=O)[C@H]([C@@H](C)CC)NC(=O)[C@@H](CCCN)NC2=O)[C@@H](C)CC)CS1 [BACITRACIN] ({Ileψ(thiazoline)Cys}-L[dE]IK[dOrn]I[dF]H[dD]N; lactam 4-C),zone of inhibition at 10 µg/disc,Enterococcus faecium [8],16 mm
CC1=CC(=O)[C@H]2[C@@H]3CC[C@H](C(C)C)[C@@]3(C(=O)O)CC[C@@]2(C)CC1=O,zone of inhibition at 200 µg/disc,Staphylococcus aureus [1],8 mm
same,zone of inhibition at 200 µg/disc,Staphylococcus aureus [2],8 mm
same,zone of inhibition at 200 µg/disc,Enterococcus faecium [3],8 mm
same,zone of inhibition at 200 µg/disc,Escherichia coli [4],8 mm
same,Activity,Candida albicans,inactive
